Common to all, as to type: in vivo
Assay [1] deals with Brachiaria decumbens (BRADC). Kind of assay: Biological Example 3 glasshouse assay using various adjuvant systems, post-emergence foliar spray. The settings on record: 8 g/ha. The procedure:
(§1) Post-emergence foliar spray application, 200 L/ha, usually one or two replicates for the weeds (depending on application rate), and two replicates for soybean.
(§2) Standard warm conditions (tropical), in glasshouse. Specifically, the glasshouse bay conditions are 24° C./18° C. day/night; 16/8 hours light/dark; 65% humidity.
(§3) The herbicidal application takes place at the following growth stages for plants which include inter alia one or more of the following plants (usually the herbicidal application takes place on at least the following plants: DIGSA, ELEIN, SETFA, ZEAMX, GLXMA Nikko, and GLXMA TMG133, and often also either BRADC or BRAPP):
Brachiaria decumbens (BRADC)—growth stage (GS) 12 or 13 (or GS 12)—or, if BRADC is not used, then usually Brachiaria platyphylla (BRAPP)—growth stage 12 or 13
(§4) Each test compound is applied with one of the following adjuvant systems (all percentages are final concentrations in the aqueous spray mixture):
(§5) Adjuvant system 1: 0.5% v/v Adigor™ *, 1.0% v/v AMS (ammonium sulphate) and 12.5% v/v IPA (isopropyl alcohol).
(§6) Adjuvant system 1A: 0.5% v/v Adigor™ * and 12.5% v/v IPA (isopropyl alcohol).
(§7) CAS Registry no. 166412-78-8), and is usually available from BASF. “Isononyl” in this context is thought to mean a mixture of two or more branched isomers of C9H19. […] A visual assessment of the % herbicidal damage is made 7 and 14 Days After herbicide Application (DAA) (or, in a minority of cases, 7 and 15 DAA), and the results are recorded as % visual herbicidal damage where 0%=no damage to plants and 100%=plant totally killed. *** Adjuvant system=either Adigor™ or Hexamoll DINCH™ or tris-(2-ethylhexyl) phosphate each at 0.5% v/v, and 12.5% v/v IPA (isopropyl alcohol), and 1.0% v/v AMS (ammonium sulphate); or 0.5% v/v Adigor™ and 12.5% v/v IPA (isopropyl alcohol); all percentages are final concentrations in the aqueous spray mixture. […]

For assay [2], the system named is Zea mays (ZEAMX, maize, corn) cultivar Garland. The assay is described as above. The conditions noted are these: 8 g/ha. The procedure: as §1, §2, §3
Zea mays (ZEAMX, maize/corn, e.g. can occur as volunteer corn) cultivar “Garland”—growth stage 12 or 13
as §4, §5, §6, §7

For assay [3], the system named is Zea mays (ZEAMX, corn, maize, e.g. volunteer corn). Description: Biological Example 1A glasshouse assay, post-emergence application. The settings on record: Zea mays, post-emergence, 312 h, read-out: Percentage phytotoxicity ZEAMX. Put shortly: (§8)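 Glasshouse spray test: herbicide in acetone/water (50:50) + 0.5% Tween 20, applied pre-emergence (1 d after sowing) or post-emergence (8 d), sandy soil. Injury scored visually, 0–100%, at 13 DAA.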

Assay [4] concerns Abutilon theophrasti (ABUTH). The description is as above. The settings on record: 312 h, read-out: Percentage phytotoxicity ABUTH. Summed up:
as §8

Assay [5] relates to Echinochloa crus-galli (ECHCG). The description is as above. The conditions noted are these: 312 h, read-out: Percentage phytotoxicity ECHCG. Put shortly:
as §8

In assay [6] the test system is Glycine max (GLXMA, soybean) cultivar TMG133. Kind of assay: Biological Example 3 glasshouse assay using various adjuvant systems, post-emergence foliar spray. How it is done: as §1, §2, §3
Glycine max (GLXMA, soybean) cultivar “TMG133”—which is Roundup Ready™ glyphosate-tolerant soybean cultivar TMG133 (typically available from Monsanto in Brazil)—growth stage: 1st trifoliate.
as §4, §5, §6
CAS Registry no. 166412-78-8), and is usually available from BASF. “Isononyl” in this context is thought to mean a mixture of two or more branched isomers of C9H19. Method: Seeds of the weed (including volunteer) plants, typically including inter alia Digitaria sanguinalis (DIGSA), Eleusine indica (ELEIN), Setaria faberi (SETFA), Zea mays (ZEAMX, corn), and sometimes also [either Brachiaria decumbens (BRADC) or Brachiaria platyphylla (BRAPP)], are sown in seed trays (troughs) containing clay loam soil (pH 7.0, 2.2% organic matter, “Trough Mix A”); and soybean seed is sown in pots containing the same soil with 3 soybean seedlings per pot. The plants are sprayed with the test herbicide when they reach the growth stages mentioned above. The test herbicidal solutions are prepared by mixing the appropriate aliquots of the test substance(s) and one of the adjuvant systems indicated above *** in deionised water to give the desired treatment concentration. The herbicidal application is made as a foliar spray, using a tracksprayer. Following the herbicidal application, the plants are watered twice per day for the duration of the test. A visual assessment of the % herbicidal damage is made 7 and 14 Days After herbicide Application (DAA) (or, in a minority of cases, 7 and 15 DAA), and the results are recorded as % visual herbicidal damage where 0%=no damage to plants and 100%=plant totally killed. *** Adjuvant system=either Adigor™ or Hexamoll DINCH™ or tris-(2-ethylhexyl) phosphate each at 0.5% v/v, and 12.5% v/v IPA (isopropyl alcohol), and 1.0% v/v AMS (ammonium sulphate); or 0.5% v/v Adigor™ and 12.5% v/v IPA (isopropyl alcohol); all percentages are final concentrations in the aqueous spray mixture.
Compounds A8, A11 and A17, which are compounds of formula (I) according to the present invention, were tested in a test method substantially as described above.
Compound A8 was tested using the 0.5% v/v Adigor™+12.5% v/v IPA adjuvant system. Compounds A11 and A17 were tested using the 0.5% v/v Adigor™+1.0% v/v AMS+12.5% v/v IPA adjuvant system.
The percentages of herbicidal damage/plant control, at 14 Days After herbicide Application (DAA) (or, in a minority of cases, at 15 DAA), for the Compounds tested and for some of the plants tested, were in the following percentage ranges. […]

Setting [7] is: 14 DAA, adjuvant 0.5% v/v Adigor + 12.5% v/v IPA.
The mark [8] stands for this setting: 14 DAA (A11: 14 or 15 DAA), adjuvant 0.5% v/v Adigor + 1.0% v/v AMS + 12.5% v/v IPA.
Where [9] appears, read: 30 g/ha, 13 days after application.
Setting [10] is: 250 g/ha, 13 days after application.

Read-outs that look alike come from different tables or passages of the source.

Take `C#CCC1CC(=O)C(c2c(F)cc(C#CC)cc2OC)C1=O` (stereo not shown) [Compound A8, 2-(2-fluoro-6-methoxy-4-prop-1-ynyl-phenyl)-4-prop-2-ynyl-cyclopentane-1,3-dione]: the “percentage control of (phytotoxicity on) Brachiaria decumbens (BRADC)” value in assay [1] (setting [7]) turned out to be 0%. Further, the “percentage control of (phytotoxicity on) Zea mays (ZEAMX, maize, corn)” value in assay [2] (setting [7]) is 65%. The figures for the pest or weed control at 30 g/ha in assay [3], in assay [4] and in assay [5] were 100%, 0% and 100%, respectively. The pest or weed control at 250 g/ha is 100% in assay [3], 70% in assay [4] and 100% in assay [5]. The “percentage phytotoxicity on Glycine max (GLXMA, soybean) cultivar TMG133” value in assay [6] (120 g/ha, 14 DAA, adjuvant 0.5% v/v Adigor + 12.5% v/v IPA) was determined as 17.5%.

Consider `CC#Cc1cc(F)c(C2C(=O)CC(CCSC)CC2=O)c(OC)c1` (stereo not shown) [Compound A11], for which the “percentage control of (phytotoxicity on) Brachiaria decumbens (BRADC)” value in assay [1] (setting [8]) worked out at 0%. For the same compound, the “percentage control of Zea mays (ZEAMX, maize, corn)” value in assay [2] (setting [8]) is recorded as 0%. For the same compound, the pest or weed control at 30 g/ha in assay [3] (setting [9]) came to 20%; in assay [4] (setting [9]), 0%; in assay [5] (setting [9]) it was 0%. In addition, the values for the pest or weed control at 250 g/ha in assay [3] (setting [10]), in assay [4] (setting [10]) and in assay [5] (setting [10]) were 20%, 10% and 10%, respectively. The “percentage phytotoxicity on Glycine max (GLXMA, soybean) cultivar TMG133” value in assay [6] (120 g/ha, 14 DAA (A11: 14 or 15 DAA), adjuvant 0.5% v/v Adigor + 1.0% v/v AMS + 12.5% v/v IPA) is reported as 5%; in assay [6] (240 g/ha, 14 DAA (A11: 14 or 15 DAA), adjuvant 0.5% v/v Adigor + 1.0% v/v AMS + 12.5% v/v IPA), 5%.

These data come from US10696686B2, “Herbicidally active (alkynyl-phenyl)-substituted cyclic dione compounds and derivatives thereof” (Syngenta Limited, priority 2013, dated 2020).
